Reference: patent US20090221056A1, “Pathogen-Detecting Cell Preservation Systems” (priority 2005, published 2009)
“Also recorded” adds a separate entry of the source. The star is where a group is joined. Cbz = O=C(OCc1ccccc1)*; CH2F = FC*

Legend:
CANARY cells = assay: Toxicity of chemical additives to CANARY cells; conditions: at 50 μM
CANARY B cells = assay: Viability of CANARY cells after storage with chemical additives; assay type: cell-based; conditions: storage at room temperature (1-3 weeks), compared to cells without additive
[1] = tested on: CANARY B cells (expressing a receptor specific for Yersinia pestis); assay type: cell-based

Substance	toxicity of additive (CANARY cells)	viability of cells stored at room temperature (CANARY B cells)	viability of cells stored at room temperature (CANARY B cells; listed as Tunicamycin)	activity (antigen detection) of cells stored at room temperature [1]	beneficial effect on stored cells (viability and/or activity) [1]	benefit of treatment to stored cells [1]
Cbz-LEHD-CH2F	toxic	–	–	–	–	–
Cbz-WEHD-CH2F	toxic	–	–	–	–	–
tunicamycin	–	improved both viability and activity	increases both cell viability and activity	increases both cell viability and activity; also recorded: retained detection sensitivity for Yersinia pestis; also recorded: improved both viability and activity	beneficial effects	detrimental
